In US6576592B1, “Herbicide composition” (Sumitomo Chemical Company, Limited, priority 1999, dated 2003):
Structures can show the parent of a compound that is named as a salt.

What was measured:
corn = test: Test Example 1: phytotoxicity to corn seeded after application; assay type: in vivo; design: key: “no harm” means that the phytotoxicity was unrecognizable or almost unrecognized; “small” means that a slight degree of phytotoxicity was recognized; “medium” means that a medium degree of phytotoxicity was recognized; “large” means that a large degree of phytotoxicity was recognized; settings: corn seeded after spraying, examined after 10 days
Experimental: The phytotoxicity is evaluated like these, “no harm” means that the phytotoxicity was unrecognizable or almost unrecognized, “small” means that a slight degree of phytotoxicity was recognized, “medium” means that a medium degree of phytotoxicity was recognized, and “large” means that a large degree of phytotoxicity was recognized.
(§1) Plastic pots each having a diameter of 11 cm and a depth of 8 cm were filled with upland soil, and then buried tubers of yellow nutsedge. And test plants were given 26 days to grow in greenhouse.An emulsifiable concentrate of compound A which had been obtained by well mixing 5 parts of compound A, 6 parts of Sorpol 3005X (produced by Toho Chemical Industry, Co., Ltd.) and 89 parts of xylene, a formulated glyphosate product (trade name: Roundup; seller, Monsanto Japan Limited), and a mixture of the emulsifiable concentrate of compound A and the formulated glyphosate product were independently diluted in their prescribed amounts with water. Each dilution was uniformly sprayed over the plants with a small sprayer, and then corn was further seeded. After the application the test plants were grown in the greenhouse for further 10 days and then, herbicidal activity and phytotoxicity to corn were examined.

yellow nutsedge = test: Test Example 1: foliar treatment of pot-grown yellow nutsedge in greenhouse, herbicidal activity; assay type: in vivo, yellow nutsedge (Cyperus esculentus); settings: sprayed over plants grown 26 days, examined 10 days after application, index 0 to 10
Excerpt: The values, “7”, “8”, “9”, and “10” of the herbicidal effect mean a excellent herbicidal effect.
as §1

| SMILES | Phytotoxicity Corn (corn; dosage 120 g/ha) | Herbicidal activity Yellow nutsedge (yellow nutsedge; dosage 120 g/ha) | Phytotoxicity Corn (corn; dosage 560 g/ha) | Herbicidal activity Yellow nutsedge (yellow nutsedge; dosage 560 g/ha) |
| --- | --- | --- | --- | --- |
| COC(=O)C(C)Oc1cc(-n2c(=O)cc(C(F)(F)F)n(C)c2=O)c(F)cc1Cl (stereo not shown) [Compound A, methyl 2-[2-chloro-4-fluoro-5-{3-methyl-2,6-dioxo-4-(trifluoromethyl)-1,2,3,6-tetrahydropyrimidin-1-yl}phenoxy]propionate] | no harm | 4 |  |  |
| O=C(O)CNCP(=O)(O)O [Glyphosate isopropylamine salt, N-(phosphonomethyl)glycine] |  |  | no harm | 1 |
